# “And” between values parts separate entries of the source, which are not always exact repeats. Equal values may be shown once.
# How the values were obtained:
# CypA = target: T1, CypA (Homo sapiens, UniProt P62937); assay: Chymotrypsin coupled prolyl-isomerase assay; format: biochemical; conditions: for prolyl-isomerase activity (raw dose-response value): CypA, in s^-1
# T1 construct: PPIA (UniProtKB Entry P62937: residues 1–165); made in house; host or cells: E. coli BL21(DE3)
# Protocol: (§1) Adapting a previously described protocol, with an Agilent Bravo Velocity 11 with a 384ST head, 90 µL assay buffer (25 mM HEPES pH 7.3, 100 mM NaCl, 0.01% Triton X-100) containing 5.28 nM cyclophilin was added into a flat, clear-bottom, black 384-well plate pre-chilled in a Corning CoolBox at 2–3 °C. Five microliters of compound pre-dissolved in 5% DMSO/assay buffer was then added to appropriate wells and incubated at 2–3 °C for 5 min. Five microliters of 0.5 mM α-chymotrypsin from bovine pancreas (Type II, lyophilized powder, Millipore-Sigma) in 20% 1 mM HCl/Assay Buffer was then added to each well and incubated at 2–3 °C for 5 min. The plate was then quickly transferred to a FLIPR Tetra High-Throughput Cellular Screening System (Molecular Devices). Using the internal liquid handling system of the FLIPR, 1 µL 0.5 mM Suc-AAPF-AMC (Chymotrypsin Substrate II, Millipore-Sigma) dissolved in 0.55 M LiCl/2,2,2-trifluoroethanol was added to each well, which was then mixed for 5 s, followed by immediate fluorescence measurements every 1 s for 330 s using a 360–380 nm excitation LED module and a 400–460 nm emission filter. Final concentrations of the plate include 5 nM cyclophilin, 0.25% DMSO, 25 µM α-chymotrypsin, 5 µM Suc-AAPF-AMC. Raw fluorescence data was analyzed by non-linear regression analysis with Prism v.9 by fitting one-phase association curves to each well. […] Rate constants calculated for each well (s^−1) were then normalized to substrate only (no prolyl-isomerase) and enzyme + substrate only controls. IC50 values were calculated as the value at which 50% inhibition was achieved on the non-linear regression fitted curve of each compound.
# CypC = target: T2, CypC (Homo sapiens, UniProt P45877); assay: Chymotrypsin coupled prolyl-isomerase assay; format: biochemical; conditions: for prolyl-isomerase activity (raw dose-response value): CypC, in s^-1
# T2 construct: PPIC (UniProtKB Entry P45877: residues 24–212); host or cells: E. coli BL21(DE3)
# T2 sequence (P45877 24-212): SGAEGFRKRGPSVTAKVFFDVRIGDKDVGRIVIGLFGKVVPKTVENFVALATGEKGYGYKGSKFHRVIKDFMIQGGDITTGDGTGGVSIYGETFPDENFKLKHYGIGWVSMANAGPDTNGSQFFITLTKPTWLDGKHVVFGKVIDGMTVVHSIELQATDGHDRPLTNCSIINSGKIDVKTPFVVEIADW
# Protocol: as §1
# CypE = target: T3, CypE (Homo sapiens, UniProt Q9UNP9); assay: Chymotrypsin coupled prolyl-isomerase assay; format: biochemical; conditions: for prolyl-isomerase activity (raw dose-response value): CypE, in s^-1
# T3 construct: PPIE (UniProtKB Entry Q9UNP9: residues 131–301); host or cells: E. coli BL21(DE3)
# T3 sequence (Q9UNP9 131-301): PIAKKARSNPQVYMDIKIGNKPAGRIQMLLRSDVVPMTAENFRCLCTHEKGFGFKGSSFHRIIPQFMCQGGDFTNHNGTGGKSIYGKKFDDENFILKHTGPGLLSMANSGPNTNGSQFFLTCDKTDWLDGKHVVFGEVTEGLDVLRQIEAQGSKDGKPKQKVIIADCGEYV
# Protocol: as §1
# CypG = target: T4, CypG (Homo sapiens, UniProt Q13427); assay: Chymotrypsin coupled prolyl-isomerase assay; format: biochemical; conditions: for prolyl-isomerase activity (raw dose-response value): CypG, in s^-1
# T4 construct: PPIG (UniProtKB Entry Q13427: residues 1–179); His6 with thrombin site (pET28a LIC leader) (N); host or cells: E. coli BL21(DE3)
# T4 sequence (Q13427 1-179): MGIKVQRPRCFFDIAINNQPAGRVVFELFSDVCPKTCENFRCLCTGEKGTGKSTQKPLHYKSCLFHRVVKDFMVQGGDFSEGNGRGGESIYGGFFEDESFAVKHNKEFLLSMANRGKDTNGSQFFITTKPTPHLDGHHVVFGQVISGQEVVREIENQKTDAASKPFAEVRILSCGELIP
# Protocol: as §1
# CypH = target: T5, CypH (Homo sapiens, UniProt O43447); assay: Chymotrypsin coupled prolyl-isomerase assay; format: biochemical; conditions: for prolyl-isomerase activity (raw dose-response value): CypH
# T5 construct: PPIH (UniProtKB Entry O43447: residues 1–177); His6 with TEV site (2BT vector leader) (N); made in house; host or cells: E. coli BL21(DE3)
# T5 sequence (O43447 whole entry, the tested form may be a part): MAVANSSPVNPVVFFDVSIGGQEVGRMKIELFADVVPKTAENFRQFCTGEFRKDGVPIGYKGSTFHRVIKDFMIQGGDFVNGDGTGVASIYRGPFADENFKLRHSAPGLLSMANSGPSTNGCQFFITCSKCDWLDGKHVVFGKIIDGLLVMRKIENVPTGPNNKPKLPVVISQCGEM
# Protocol: as §1
# CypB = target: T6, CypB (Homo sapiens, UniProt P23284); assay: biochemical; conditions: for prolyl-isomerase activity (raw dose-response value): CypB
# T6 construct: PPIB (UniProtKB Entry P23284: residues 34–216); His6 with TEV site (2BT vector leader) (N); made in house; host or cells: E. coli BL21(DE3)
# T6 sequence (P23284 34-216): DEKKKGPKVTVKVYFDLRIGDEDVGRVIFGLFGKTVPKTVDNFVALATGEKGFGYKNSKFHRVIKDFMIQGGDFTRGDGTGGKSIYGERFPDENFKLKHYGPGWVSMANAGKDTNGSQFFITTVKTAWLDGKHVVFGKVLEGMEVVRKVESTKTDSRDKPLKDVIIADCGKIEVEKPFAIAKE
# Protocol: as §1
# PPIL1 = target: T7, PPIL1 (Homo sapiens, UniProt Q9Y3C6); assay: Chymotrypsin coupled prolyl-isomerase assay; format: biochemical
# T7 construct: PPIL1 (UniProtKB Entry Q9Y3C6: residues 1–166); made in house; host or cells: E. coli BL21(DE3)
# T7 sequence (Q9Y3C6 1-166): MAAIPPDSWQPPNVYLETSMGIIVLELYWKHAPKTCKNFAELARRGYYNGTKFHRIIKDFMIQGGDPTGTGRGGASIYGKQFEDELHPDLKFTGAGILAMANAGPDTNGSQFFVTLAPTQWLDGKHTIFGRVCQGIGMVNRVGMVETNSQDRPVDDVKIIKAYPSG
# T1 sequence (P62937 whole entry, the tested form may be a part): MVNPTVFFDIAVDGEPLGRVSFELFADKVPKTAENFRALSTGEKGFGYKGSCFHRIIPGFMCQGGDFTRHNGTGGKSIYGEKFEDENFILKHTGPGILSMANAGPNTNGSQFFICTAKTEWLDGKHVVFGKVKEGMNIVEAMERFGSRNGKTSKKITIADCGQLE
compound,measurement,setting,value
NCCOCCNC(=O)[C@@H]1CCNC(=O)/C=C/C(=O)N2CCC[C@](Cc3ccccc3)(C2)C(=O)N[C@@H](Cc2ccc(C(=O)c3ccccc3)cc2)C(=O)NCc2ccccc2CC(=O)N1 [Compound B1],prolyl-isomerase activity (raw dose-response value),CypA; dose 0.00114312 µM,0.07489 and 0.0818 and 0.1208
same,prolyl-isomerase activity (raw dose-response value),CypA; dose 0.00342935 µM,0.107 and 0.09816 and 0.1302
same,prolyl-isomerase activity (raw dose-response value),CypA; dose 0.0102881 µM,0.09417 and 0.08156 and 0.09814
same,prolyl-isomerase activity (raw dose-response value),CypA; dose 0.0308642 µM,0.0846 and 0.08188 and 0.08679
same,prolyl-isomerase activity (raw dose-response value),CypA; dose 0.0925926 µM,0.06244 and 0.05553 and 0.05478
same,prolyl-isomerase activity (raw dose-response value),CypA; dose 0.277778 µM,0.04513 and 0.03865 and 0.03913
same,prolyl-isomerase activity (raw dose-response value),CypA; dose 0.833333 µM,0.02761 and 0.02378 and 0.02924
same,prolyl-isomerase activity (raw dose-response value),CypA; dose 2.5 µM,0.01703 and 0.01931 and 0.02247
same,IC50,"CypA; wild-type CypA, read-out: Wild-Type Cyclophilin Prolyl Isomerase Inhibition IC50 Values, CypA",70 nM
same,prolyl-isomerase activity (raw dose-response value),CypC; dose 0.00244141 µM,0.04561 and 0.0417 and 0.04308
same,prolyl-isomerase activity (raw dose-response value),CypC; dose 0.00488281 µM,0.04435 and 0.04111 and 0.04239
same,prolyl-isomerase activity (raw dose-response value),CypC; dose 0.00976562 µM,0.04356 and 0.0401 and 0.04072
same,prolyl-isomerase activity (raw dose-response value),CypC; dose 0.0195312 µM,0.03963 and 0.03695 and 0.03646
same,prolyl-isomerase activity (raw dose-response value),CypC; dose 0.0390625 µM,0.035 and 0.03188 and 0.03161
same,prolyl-isomerase activity (raw dose-response value),CypC; dose 0.078125 µM,0.02847 and 0.0253 and 0.02646
same,prolyl-isomerase activity (raw dose-response value),CypC; dose 0.15625 µM,0.02267 and 0.02159 and 0.02162
same,prolyl-isomerase activity (raw dose-response value),CypC; dose 0.3125 µM,0.01917 and 0.0189 and 0.01739
same,prolyl-isomerase activity (raw dose-response value),CypC; dose 0.625 µM,0.01677 and 0.01627 and 0.01518
same,prolyl-isomerase activity (raw dose-response value),CypC; dose 1.25 µM,0.01345 and 0.01256 and 0.01367
same,prolyl-isomerase activity (raw dose-response value),CypC; dose 2.5 µM,0.009144 and 0.00999 and 0.01009
same,IC50,"CypC; wild-type CypC, read-out: Wild-Type Cyclophilin Prolyl Isomerase Inhibition IC50 Values, CypC",79 nM
same,prolyl-isomerase activity (raw dose-response value),CypE; dose 0.00244141 µM,0.1145 and 0.1032 and 0.1074
same,prolyl-isomerase activity (raw dose-response value),CypE; dose 0.00488281 µM,0.1194 and 0.1024 and 0.1063
same,prolyl-isomerase activity (raw dose-response value),CypE; dose 0.00976562 µM,0.1019 and 0.09727 and 0.09617
same,prolyl-isomerase activity (raw dose-response value),CypE; dose 0.0195312 µM,0.09053 and 0.08335 and 0.08401
same,prolyl-isomerase activity (raw dose-response value),CypE; dose 0.0390625 µM,0.08777 and 0.07578 and 0.07602
same,prolyl-isomerase activity (raw dose-response value),CypE; dose 0.078125 µM,0.06552 and 0.06127 and 0.05879
same,prolyl-isomerase activity (raw dose-response value),CypE; dose 0.15625 µM,0.05184 and 0.04744 and 0.04506
same,prolyl-isomerase activity (raw dose-response value),CypE; dose 0.3125 µM,0.04144 and 0.0397 and 0.03654
same,prolyl-isomerase activity (raw dose-response value),CypE; dose 0.625 µM,0.03167 and 0.02791 and 0.02701
same,prolyl-isomerase activity (raw dose-response value),CypE; dose 1.25 µM,0.02174 and 0.02048 and 0.01944
same,prolyl-isomerase activity (raw dose-response value),CypE; dose 2.5 µM,0.0149 and 0.01299 and 0.01222
same,IC50,"CypE; wild-type CypE, read-out: Wild-Type Cyclophilin Prolyl Isomerase Inhibition IC50 Values, CypE",99 nM
same,prolyl-isomerase activity (raw dose-response value),CypG; dose 6.125 µM,0.0775 and 0.0774 and 0.07959
same,prolyl-isomerase activity (raw dose-response value),CypG; dose 12.5 µM,0.07476 and 0.07359 and 0.07437
same,prolyl-isomerase activity (raw dose-response value),CypG; dose 25 µM,0.06566 and 0.06625 and 0.06165
same,prolyl-isomerase activity (raw dose-response value),CypG; dose 50 µM,0.05369 and 0.05651 and 0.05019
same,prolyl-isomerase activity (raw dose-response value),CypG; dose 100 µM,0.03357 and 0.03853 and 0.03559
same,IC50,"CypG; wild-type CypG, read-out: Wild-Type Cyclophilin Prolyl Isomerase Inhibition IC50 Values, CypG",70000 nM
same,prolyl-isomerase activity (raw dose-response value),CypH; dose 0.0228624 µM,0.05823 and 0.06198 and 0.07295
same,prolyl-isomerase activity (raw dose-response value),CypH; dose 0.0685871 µM,0.0659 and 0.06156 and 0.06865
same,prolyl-isomerase activity (raw dose-response value),CypH; dose 0.205761 µM,0.06027 and 0.0617 and 0.06475
same,prolyl-isomerase activity (raw dose-response value),CypH; dose 0.617284 µM,0.05924 and 0.06278 and 0.06988
same,prolyl-isomerase activity (raw dose-response value),CypH; dose 1.85185 µM,0.05446 and 0.06201 and 0.06094
same,prolyl-isomerase activity (raw dose-response value),CypH; dose 5.55556 µM,0.05231 and 0.05643 and 0.05555
same,prolyl-isomerase activity (raw dose-response value),CypH; dose 16.6667 µM,0.04539 and 0.04092 and 0.04707
same,prolyl-isomerase activity (raw dose-response value),CypH; dose 50 µM,0.02854 and 0.02769 and 0.02761
same,IC50,"CypH; wild-type CypH, read-out: Wild-Type Cyclophilin Prolyl Isomerase Inhibition IC50 Values, CypH",20000 nM
same,prolyl-isomerase activity (raw dose-response value),CypB; dose 0.00114312 µM,0.08676 and 0.07612 and 0.1045
same,prolyl-isomerase activity (raw dose-response value),CypB; dose 0.00342935 µM,0.09293 and 0.08942 and 0.1133
same,prolyl-isomerase activity (raw dose-response value),CypB; dose 0.0102881 µM,0.05857 and 0.07024 and 0.08235
same,prolyl-isomerase activity (raw dose-response value),CypB; dose 0.0308642 µM,0.06507 and 0.05219 and 0.06265
same,prolyl-isomerase activity (raw dose-response value),CypB; dose 0.0925926 µM,0.05131 and 0.04637 and 0.04858
same,prolyl-isomerase activity (raw dose-response value),CypB; dose 0.277778 µM,0.03303 and 0.03453 and 0.03517
same,prolyl-isomerase activity (raw dose-response value),CypB; dose 0.833333 µM,0.03176 and 0.0219 and 0.02127
same,prolyl-isomerase activity (raw dose-response value),CypB; dose 2.5 µM,0.01492 and 0.01697 and 0.01392
same,IC50,"CypB; wild-type CypB, read-out: Wild-Type Cyclophilin Prolyl Isomerase Inhibition IC50 Values, CypB",30 nM
same,prolyl-isomerase activity (raw dose-response value),"PPIL1; PPIL1, dose 0.0228624 µM",0.0901 and 0.08843 and 0.1022
same,prolyl-isomerase activity (raw dose-response value),"PPIL1; PPIL1, dose 0.0685871 µM",0.07658 and 0.07564 and 0.08071
same,prolyl-isomerase activity (raw dose-response value),"PPIL1; PPIL1, dose 0.205761 µM",0.05553 and 0.06081 and 0.06346
same,prolyl-isomerase activity (raw dose-response value),"PPIL1; PPIL1, dose 0.617284 µM",0.04442 and 0.03692 and 0.0407
same,prolyl-isomerase activity (raw dose-response value),"PPIL1; PPIL1, dose 1.85185 µM",0.02604 and 0.02534 and 0.024
same,prolyl-isomerase activity (raw dose-response value),"PPIL1; PPIL1, dose 5.55556 µM",0.01797 and 0.0175 and 0.01949
same,prolyl-isomerase activity (raw dose-response value),"PPIL1; PPIL1, dose 16.6667 µM",0.01539 and 0.0139 and 0.01238
same,prolyl-isomerase activity (raw dose-response value),"PPIL1; PPIL1, dose 50 µM",0.01281 and 0.01627 and 0.01081
same,IC50,"PPIL1; wild-type PPIL1, read-out: Wild-Type Cyclophilin Prolyl Isomerase Inhibition IC50 Values, PPIL1",200 nM
